Source: patent US20250304623A1, “PEPTIDES FOR INTRACELLULAR DELIVERY” (UNIVERSIDADE DE SANTIAGO DE COMPOSTELA, priority 2022, published 2025)
*: point of attachment. NHNH2 = NN*

What was measured:
Assay type in all cases: cell-based
A549 cells = assay: EGFP mRNA delivery, robotic library screening, A549
Experimental: Cells were seeded in a 96 well plate the day before the experiment at a concentration of 50,000 cell/mL (100 μL/w) in DMEM+10% FBS+1% Gln-Abt. For robotic library screening, the delivery of EGFP-mRNA (from TriLink, fully substituted with 5-methoxyuridine, capped and polyadenylated; TriLink, CleanCap® EGFP mRNA (5moU), ref. L-7201) in six different cell lines was performed. Amphiphilic molecule stock solutions were prepared in DMSO as described above and diluted in DMEM to afford a range of concentrations. The solutions of EGFP-mRNA/amphiphilic molecule complexes were freshly prepared prior to the transfection experiments. 35 μL of the corresponding amphiphile were added to 10 μL of a solution of EGFP-mRNA at 10 ng/μL in DMEM. The mixture was shaken for 30 min at room temperature before the addition to the cells. The cell medium was aspirated, and cells were washed with PBS twice. Cells were covered with 39 μL of DMEM and 11 μL of the complex's solution were added to the cells and incubated for 4 h (final concentration of peptide=2.5, 5 and 10 μM; final concentration of EGFP-mRNA=25 ng/well). After the incubation, the medium was replaced by 100 μL of fresh DMEM supplemented with 10% FBS. The total EGFP fluorescence was quantified after 72 h in a well plate reader. Amphiphile transfection efficiency was compared and normalized to Lipofectamine® MessengerMax efficiency (value of 1 in Tables 1-5 and 7; double underlined numbers). All experiments were done in triplicate.
(§1) Tables 1-7: RLuc (pDNA) or EGFP (mRNA) expression levels were normalized to Lipofectamine reagents (value=1) and expressed as fold-times signal increase. In the case of siRNA, the siRNA treated cells fluorescence was compared with siMOCK control fluorescence, while Cas9-RNP mediated knockout was measured against the fluorescence of untreated cells. In both siRNA and Cas9-RNP, values are expressed as % fluorescence reduction. Amphiphile concentration was 5 μM in all cases. All experiments were performed in triplicate.
Tables 14-19 show the mean (triplicates) fluorescence intensity measured after the transfection of EGFP mRNA by different amphiphiles at different concentrations in a variety of cell lines. Background fluorescence values, accounted by untreated control cells, were subtracted for processing.

Hela cells = assay: RLuc pDNA delivery, robotic library screening, HeLa
[1] = test system: HCT116 cells expressing EGFP; assay: EGFP-targeting siRNA delivery (GFP silencing vs siMOCK), HCT116
Experimental: To generate an EGFP expressing HeLa cell line, HeLa cells were transfected with EGFP pDNA (pEGFP-C1, Clontech) and stable transfectants were selected with 400 μg/mL of G-418 (Millipore). Green clones were selected by epifluorescence microscopy and tested for EGFP expression stability through several passages. […] All other EGFP-expressing cell lines were obtained in a similar way from parent non-EGFP-expressing cell lines.
Cells expressing EGFP were seeded in a 96 well plate the day before the experiment at a concentration of 50,000 cell/mL (100 μL/w) in DMEM+10% FBS+1% Gln-Abt. For robotic library screening, the delivery of an EGFP-targeting siRNA (EGFP: enhanced green fluorescent protein, Ambion® Silencer® GFP Positive Control siRNA (siGFP) (AM4626)) in six different cell lines expressing EGFP was performed. Amphiphilic molecules stock solutions in DMSO were diluted with DMEM and freshly mixed with siRNA stock solutions in DMEM prior to transfection experiments, to afford several complexes at different amphiphile concentration (2-10 μM) while maintaining a constant final siRNA concentration of 30 nM. The mixture was shaken for 30 min at room temperature (rt) before the addition to the cells. The cell medium was aspirated, and cells were washed twice with PBS. Finally, 50 μL of the solution of siRNA/amphiphile complexes were added to the cells and incubated for 4 h. After transfection, the medium was replaced by 100 μL of fresh DMEM supplemented with 10% FBS. The fluorescence knockdown was quantified after 72 h in a plate reader, by comparison with cells transfected with a non-targeting siRNA control (siMOCK, Silencer™ Negative Control No. 1 siRNA (siMOCK) (AM4611)). EGFP knockdown was compared with Lipofectamine® RNAiMAX silencing efficiency (30-60% depending on cell line, defined with a numeric value in the below tables). All experiments were done in triplicate.
as §1
Tables 20-25 show the mean (triplicates) percentage of GFP-silencing, accounted by fluorescence intensity decrease relative to a non-targeting siRNA (siMOCK) control, measured after the transfection of siRNA by different amphiphiles at different concentrations in a variety of cell lines. Background values, accounted by untreated control cells, were subtracted for processing.

Row | Substance | mean fluorescence intensity (EGFP mRNA) (A549 cells; Myristoleyl, 5 μM) | mean fluorescence intensity (EGFP mRNA) (A549 cells; Myristoleyl, 10 μM) | mean luminescent intensity (RLuc pDNA) (Hela cells; Hela, Dodecanal, 10 μM) [RLU] | mean luminescent intensity (RLuc pDNA) (Hela cells; Hela, Dodecanal, 15 μM) [RLU] | mean luminescent intensity (RLuc pDNA) (Hela cells; Hela, Myristoleyl, 5 μM) [RLU] | mean luminescent intensity (RLuc pDNA) (Hela cells; Hela, Myristoleyl, 10 μM) [RLU] | mean luminescent intensity (RLuc pDNA) (Hela cells; Hela, Myristoleyl, 15 μM) [RLU] | percentage of GFP-silencing relative to siMOCK ([1]; Dodecanal, 5 μM) [%] | percentage of GFP-silencing relative to siMOCK ([1]; Dodecanal, 10 μM) [%] | percentage of GFP-silencing relative to siMOCK ([1]; Dodecanal, 15 μM) [%] | percentage of GFP-silencing relative to siMOCK ([1]; Myristoleyl, 15 μM) [%] | mean fluorescence intensity (EGFP mRNA) (A549 cells; Dodecanal, 2.5 μM) | mean fluorescence intensity (EGFP mRNA) (A549 cells; Myristoleyl, 2.5 μM) | mean fluorescence intensity (EGFP mRNA) (A549 cells; Petroselinyl, 2.5 μM) | mean fluorescence intensity (EGFP mRNA) (A549 cells; Petroselinyl, 5 μM) | mean fluorescence intensity (EGFP mRNA) (A549 cells; Petroselinyl, 10 μM) | mean luminescent intensity (RLuc pDNA) (Hela cells; HeLa, Petroselinyl, 10 μM) [RLU] | mean luminescent intensity (RLuc pDNA) (Hela cells; Hela, Palmitoleyl, 5 μM) [RLU] | mean luminescent intensity (RLuc pDNA) (Hela cells; Hela, Palmitoleyl, 10 μM) [RLU] | mean luminescent intensity (RLuc pDNA) (Hela cells; Hela, Petroselinyl, 5 μM) [RLU] | also measured
1 | Ac-RK*LRRLLRK*-NH2 (Ac-RK(NHNH2)LRRLLRK(NHNH2)-NH2; not fully specified; printed as Ac-RK*LRRLLRK*-NH2; also: K*2,K*9: native or modified lysine (ε-amide to a linker)) [Peptide 9.2] | 205 | −79 | 13156 | 11603 | −600 | −701 | −707 | −7 | 3 | 11 | −38 |  |  |  |  |  |  |  |  |  | percentage of GFP-silencing relative to siMOCK ([1]; Myristoleyl, 10 μM): −9%
2 | Ac-RRHK*RLK*RRLK*RL-NH2 (Ac-RRHK(NHNH2)RLK(NHNH2)RRLK(NHNH2)RL-NH2; not fully specified; printed as Ac-RRHK*RLK*RRLK*RL-NH2; also: K*4,K*7,K*11: native or modified lysine (ε-amide to a linker)) [13(Leu-His)] | 370 | 569 |  |  | 7216 | 985 | −373 | 43 | 43 | 40 |  | 2133 | 882 | 1141 | 437 | 245 | 2037 | 7854 | 3026 | 5527 | mean fluorescence intensity (EGFP mRNA) (A549 cells; Dodecanal, 5 μM): 803; mean fluorescence intensity (EGFP mRNA) (A549 cells; Dodecanal, 10 μM): 170; mean fluorescence intensity (EGFP mRNA) (A549 cells; Palmitoleyl, 2.5 μM): 1406; mean fluorescence intensity (EGFP mRNA) (A549 cells; Palmitoleyl, 5 μM): 916; mean fluorescence intensity (EGFP mRNA) (A549 cells; Palmitoleyl, 10 μM): 617; percentage of GFP-silencing relative to siMOCK ([1]; Palmitoleyl, 5 μM): 43%; percentage of GFP-silencing relative to siMOCK ([1]; Palmitoleyl, 10 μM): 49%; percentage of GFP-silencing relative to siMOCK ([1]; Petroselinyl, 5 μM): 47%; percentage of GFP-silencing relative to siMOCK ([1]; Petroselinyl, 10 μM): 29%
3 | Ac-RRLK*RLK*RRLK*RL-NH2 [Peptide 13.3] | 170 | 240 | 23656 |  | 17325 | 2310 | −37 | 45 |  | 31 | −5 | 298 |  | 245 | 117 | 107 | 4639 | 18783 | 105810 | 657 | mean fluorescence intensity (EGFP mRNA) (A549 cells; Oleyl, 2.5 μM): 214; mean luminescent intensity (RLuc pDNA) (Hela cells; HeLa, Dodecanal, 5 μM): 18306 RLU; mean luminescent intensity (RLuc pDNA) (Hela cells; Hela, Oleyl, 15 μM): 1922 RLU; mean luminescent intensity (RLuc pDNA) (Hela cells; Hela, Palmitoleyl, 15 μM): 137093 RLU; mean luminescent intensity (RLuc pDNA) (Hela cells; Hela, Petroselinyl, 15 μM): 90989 RLU; percentage of GFP-silencing relative to siMOCK ([1]; Oleyl, 5 μM): 55%; percentage of GFP-silencing relative to siMOCK ([1]; Oleyl, 10 μM): 46%; percentage of GFP-silencing relative to siMOCK ([1]; Oleyl, 15 μM): 14%; percentage of GFP-silencing relative to siMOCK ([1]; Palmitoleyl, 10 μM): 31%; percentage of GFP-silencing relative to siMOCK ([1]; Palmitoleyl, 15 μM): 28%; percentage of GFP-silencing relative to siMOCK ([1]; Petroselinyl, 5 μM): 1%
4 | Ac-RRLK*RLLRRLK*RLK*RRL-NH2 (Ac-RRLK(NHNH2)RLLRRLK(NHNH2)RLK(NHNH2)RRL-NH2; not fully specified; printed as Ac-RRLK*RLLRRLK*RLK*RRL-NH2; also: K*4,K*11,K*14: native or modified lysine (ε-amide to a linker)) [Peptide 17.3] | 309 |  | 1535 | 1856 | 309 | −392 |  |  |  |  | 78 |  | 563 | 791 | 440 | 274 | 85712 | 190106 | 246511 | 237718 | mean luminescent intensity (RLuc pDNA) (Hela cells; Hela, Oleyl, 10 μM): 2071 RLU; mean luminescent intensity (RLuc pDNA) (Hela cells; Hela, Oleyl, 15 μM): 2261 RLU; mean luminescent intensity (RLuc pDNA) (Hela cells; Hela, Palmitoleyl, 15 μM): 163602 RLU; mean luminescent intensity (RLuc pDNA) (Hela cells; Hela, Petroselinyl, 15 μM): 7153 RLU; percentage of GFP-silencing relative to siMOCK ([1]; Oleyl, 10 μM): 44%; percentage of GFP-silencing relative to siMOCK ([1]; Oleyl, 15 μM): 64%; percentage of GFP-silencing relative to siMOCK ([1]; Petroselinyl, 15 μM): 66%
